Measured values: patent US9133212B1, “Inhibitors of hemeprotein-catalyzed lipid peroxidation” (Vanderbilt University, priority 2005, dated 2015)
Like-named read-outs stand apart in the source and are kept apart here.

Key:
PGHS-2 (COX-2) = target: T1, PGHS-2 (COX-2) (Homo sapiens, UniProt P35354); experiment: Inhibition of PGHS-2 (COX-2), [14C]arachidonic acid oxidation; format: biochemical; details: for inhibition of PGHS-2 (COX-2), in words: compared with its PGHS-1 inhibition
T1 sequence (P35354 18-604): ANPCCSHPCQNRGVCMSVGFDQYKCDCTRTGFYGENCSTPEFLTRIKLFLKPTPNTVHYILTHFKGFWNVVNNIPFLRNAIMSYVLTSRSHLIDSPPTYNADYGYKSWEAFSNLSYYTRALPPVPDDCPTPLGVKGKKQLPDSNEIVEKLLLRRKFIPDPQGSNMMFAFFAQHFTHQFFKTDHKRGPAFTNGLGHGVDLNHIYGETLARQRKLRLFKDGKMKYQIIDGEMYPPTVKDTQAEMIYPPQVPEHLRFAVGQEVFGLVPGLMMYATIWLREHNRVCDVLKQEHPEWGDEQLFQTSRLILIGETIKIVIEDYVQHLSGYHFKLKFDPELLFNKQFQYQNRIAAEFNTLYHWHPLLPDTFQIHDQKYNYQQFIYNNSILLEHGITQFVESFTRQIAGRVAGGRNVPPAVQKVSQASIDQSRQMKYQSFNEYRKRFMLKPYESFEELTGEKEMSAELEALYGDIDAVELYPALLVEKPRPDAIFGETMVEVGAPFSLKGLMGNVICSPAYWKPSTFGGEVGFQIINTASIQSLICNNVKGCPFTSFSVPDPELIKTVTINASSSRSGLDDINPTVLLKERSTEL
Description: (§1) Hematin-reconstituted COX-1 (5.4 nM) or COX-2 (10.8 nM) in Tris HCl 100 mM, pH 8.0, 500 μM phenol, was pre-incubated with N-dimethyl pyrimidinol (DM, plain line) or N-dimethyl pyridinol (DR, dashed line) at varying concentrations at 37° C. for 20 minutes. At this time the reaction was initiated by addition of 0.5 μM of [14C] arachidonic acid. After 8 seconds, the reaction was stopped by adding an ice cold mixture of diethyl ether/methanol/4.0 M citric acid. PGHS-1 activity was expressed as percent oxidation of arachidonic acid compared with control where no inhibitor was added. Each data point represents the mean±S.E.M of six values.

HepG2 cells = experiment: Direct cellular toxicity (total cellular ATP levels); format: cell-based; details: Homo sapiens, concentration causing a 50% decrease in total cellular ATP levels, read-out: Cellular Toxicity (EC50, μM ± SD)
Description: Microsomal stability is expressed as % of unmodified compound remaining after reaction. Cellular toxicity is expressed as the con-centration causing a 50% decrease in total cellular ATP levels. Values represent means±S.E.M.

myoglobin (Mb) = target: T2, myoglobin (Mb) (Homo sapiens, UniProt P02144); experiment: Inhibition of myoglobin-induced arachidonic acid oxidation; format: biochemical
T2 sequence (P02144 1-154): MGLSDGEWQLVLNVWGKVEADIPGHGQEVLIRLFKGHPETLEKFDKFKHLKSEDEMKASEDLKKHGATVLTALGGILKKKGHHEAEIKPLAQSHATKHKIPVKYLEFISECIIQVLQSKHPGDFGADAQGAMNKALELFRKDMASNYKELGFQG
Description: (§2) The inhibition of the lipid peroxidation produced by myoglobin (Mb) and COX-1 by the different analogs was tested. Values represent the IC50 for each hemeprotein and are expressed as means±S.E.M. a: value reported from (1.). b: value reported from (3).

COX-1 [1] = target: T3, COX-1 (Homo sapiens, UniProt P23219); experiment: Inhibition of COX-1 oxidation of arachidonic acid (Example 6); format: biochemical
Description: as §2

Microsomal stability = details: % of unmodified compound remaining after reaction
hemoglobin = hemoglobin (Homo sapiens, UniProt P68871+P69905); experiment: Inhibition of hemoglobin-catalyzed lipid peroxidation; format: biochemical; details: read-out: IC50 for hemoglobin (hemoprotein-catalyzed lipid peroxidation)
[2] = test system: rat model of rhabdomyolysis; experiment: Rat model of rhabdomyolysis (renal failure from myoglobin-catalyzed lipid peroxidation); format: in vivo; details: dose that produced plasma levels in the therapeutic range for humans
PGHS-1 (COX-1) = PGHS-1 (COX-1) (Homo sapiens, UniProt P23219); experiment: Inhibition of PGHS-1 (COX-1), [14C]arachidonic acid oxidation; format: biochemical; details: for IC50: in vitro system
Description: At this time the reaction was initiated by addition of 0.5 μM of [14C]arachidonic acid. After 8 seconds, the reaction was stopped by adding an ice cold mixture of diethyl ether/methanol/4.0 M citric acid. PGHS-1 activity was expressed as percent oxidation of arachidonic acid compared with control where no inhibitor was added. Each data point represents the mean±S.E.M of six values.
as §1

COX-1 [3] = target: T3, COX-1; details: oxidation of arachidonic acid, Table 2, footnote b; read-out: COX-1 IC50 (μM ± SEM), value reported from (3); cited from earlier work
ferryl myoglobin = target: T4, ferryl myoglobin (Homo sapiens, UniProt P02144); experiment: Reduction of ferryl myoglobin to ferric myoglobin; format: biochemical
T4 sequence (P02144 1-154): T2 sequence (P02144 1-154)
Description: Ferryl myoglobin was generated by incubating ferric myoglobin 10 μM in PBS with 10 μM hydrogen peroxide until there was no more change in the peak at 421 nm. At this time, the analogs were added to the cuvette at the final concentrations indicated and spectra were recorded every 15 sec for 2 min. The initial rate of reduction was calculated as the variation of absorbance at 409 nm in the first two minutes after adding the analogs. In this period of time the rates of reduction were linear for each concentration of analog.

HepG2 liver cell line = test system: HepG2 liver cell line
Description: HepG2 were plated in multiple 96-well plates at 2×10^4 cells per well and pretreated with ethanol 100 μM for 2 hours. […] Cell viability after 24 h was determined by measuring ATP levels by luminescence assay.

[4] = bicyclic compounds, structure table, read-out: Oxidation of AA by Mb IC50
[5] = oxidation of arachidonic acid, Table 2, read-out: Mb IC50 (μM ± SEM)
[6] = bicyclic compounds, structure table, read-out: Oxidation of AA by COX-1 IC50
[7] = oxidation of arachidonic acid, Table 2, read-out: COX-1 IC50 (μM ± SEM)

T3 sequence (P23219 24-599, species assumed): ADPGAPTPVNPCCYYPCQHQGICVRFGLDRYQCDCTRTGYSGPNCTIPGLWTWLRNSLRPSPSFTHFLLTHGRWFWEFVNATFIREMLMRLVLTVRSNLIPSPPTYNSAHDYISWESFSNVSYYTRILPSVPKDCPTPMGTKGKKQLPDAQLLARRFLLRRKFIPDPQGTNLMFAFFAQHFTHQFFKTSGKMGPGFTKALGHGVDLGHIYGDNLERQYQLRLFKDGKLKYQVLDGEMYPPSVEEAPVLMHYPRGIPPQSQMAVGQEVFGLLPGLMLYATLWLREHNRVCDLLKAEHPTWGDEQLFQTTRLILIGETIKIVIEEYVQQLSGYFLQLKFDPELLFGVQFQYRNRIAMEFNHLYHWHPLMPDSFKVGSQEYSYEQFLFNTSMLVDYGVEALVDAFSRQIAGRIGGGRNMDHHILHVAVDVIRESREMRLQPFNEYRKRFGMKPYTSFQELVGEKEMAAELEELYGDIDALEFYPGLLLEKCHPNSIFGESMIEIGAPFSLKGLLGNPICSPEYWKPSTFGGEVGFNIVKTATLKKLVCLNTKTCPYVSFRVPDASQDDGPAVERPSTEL
Sequence of PGHS-1 (COX-1) (P23219 24-599, species assumed): as above
Sequence of hemoglobin (P69905 2-142 limits assumed): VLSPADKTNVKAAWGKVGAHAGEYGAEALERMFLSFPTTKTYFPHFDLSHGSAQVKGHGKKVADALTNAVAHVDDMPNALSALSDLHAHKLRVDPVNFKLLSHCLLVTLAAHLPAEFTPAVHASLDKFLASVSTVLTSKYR
Sequence of hemoglobin (P68871 2-147 limits assumed): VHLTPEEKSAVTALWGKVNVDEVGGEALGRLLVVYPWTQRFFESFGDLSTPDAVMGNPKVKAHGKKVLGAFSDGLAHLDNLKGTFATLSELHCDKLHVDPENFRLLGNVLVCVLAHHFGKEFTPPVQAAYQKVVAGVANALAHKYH

| IC50 (myoglobin (Mb); [4]) [µM] | IC50 (myoglobin (Mb); [5]) [µM] | IC50 (COX-1 [1]; [6]) [µM] | IC50 (COX-1 [1]; [7]) [µM] | Microsomal stability % left (Microsomal stability) [%] | Molecule | EC50 (HepG2 cells) [µM] | other results |
| --- | --- | --- | --- | --- | --- | --- | --- |
|  |  |  |  |  | CN(C)c1ccc(O)cn1 [DM-Pyr, 6-(dimethylamino)pyridin-3-ol] |  | inhibition of PGHS-2 (COX-2), in words (PGHS-2 (COX-2)): only a weak inhibitor |
| 1.15 ± 0.3 | 1.2 ± 0.1 | 451 | 451 ± 35 | 158 ± 33 | O=C1NCc2cc(O)cnc2N1 [Analog 12] | 4760 ± 36 |  |
| 2.29 ± 0.6 | 2.3 ± 0.4 | > 1000 | > 1000 | 87 ± 7 | Cc1nc2c(c(C)c1O)CNC(=O)N2 [Analog 13] | 2960 ± 284 | inhibition of COX-1, in words (COX-1 [1]; at concentrations up to 1 mM): not able to significantly inhibit |
|  |  |  |  |  | CC(=O)Nc1ccc(O)cc1 [ApAP, acetaminophen] | 594 ± 147 | IC50 (hemoglobin): 15 µM; lipid peroxidation in rhabdomyolysis model ([2]; listed as Acetaminophen): blocked; renal failure in rhabdomyolysis model ([2]; listed as Acetaminophen): prevented; lipid peroxidation in rhabdomyolysis model ([2]; listed as acetaminophen): blocks; renal failure in rhabdomyolysis model ([2]; listed as acetaminophen): blocks; IC50 (PGHS-1 (COX-1)): 250 µM; IC50 (COX-1 [3]): 372 µM |
|  |  |  |  |  | 2-(dimethylamino)pyrimidin-5-ol [DM-Pym] |  | times more potent in reducing ferryl myoglobin than acetaminophen (ferryl myoglobin; relative to acetaminophen): 14 times; times more potent as an inhibitor of PGHS-1 than acetaminophen (PGHS-1 (COX-1); relative to acetaminophen): 10 times; times more potent as an inhibitor of PGHS-2 than acetaminophen (PGHS-2 (COX-2); relative to acetaminophen): 10 times; cytotoxicity in HepG2 cell line stimulated with ethanol (HepG2 liver cell line): not cytotoxic |
| 5.34 ± 0.1 | 5.3 ± 0.1 | 198 ± 50.1 | 198 ± 25 | 97 ± 3 | Cc1nc2c(c(C)c1O)COC(=O)N2 [Analog 14] | > 5000 |  |
|  |  |  |  |  | CN(C)c1ncc(O)cn1 [DM-Pym, 2-(dimethylamino)pyrimidin-5-ol] |  | potency in reducing ferryl myoglobin, in words (ferryl myoglobin; compared with acetaminophen): remarkably more potent than acetaminophen; IC50 (PGHS-1 (COX-1)): 21 µM; inhibition of PGHS-2 (COX-2), in words (PGHS-2 (COX-2)): equally effective; cytotoxicity in HepG2 cell line stimulated with ethanol (HepG2 liver cell line): does not cause cytotoxicity |
